Measured values: patent US8207135B2, “Compositions for and methods of enhancing the immune response to antigens” (Wittycell, priority 2007, dated 2012)

Legend:
[1] = system: Ova-specific target cells; experiment: in vivo cytotoxic specific cell lysis assay (CD8+ T cell response) in immunized mice; design: species or system mouse
OVA specific IgG2a = experiment: OVA-specific IgG2a ELISA after intramuscular immunization; type: in vivo, mouse; conditions: FIG. 12; IM, 50 μg OVA with 100 ng adjuvant, 14 days post-injection
Method: (§1) Mice (6 per group) were injected intramuscularly with 50 μg of OVA either alone or in combination with 100 ng of the indicated adjuvants (Freund's adjuvant was used as a positive control) as follows: • Group 1: […] of Ova with CFA/IFA (Positive control) • Group 2: 50 μg of Ova • Group 3: 50 μg of Ova and 100 ng of αGalCer • Group 4: 50 μg of Ova and 100 ng of PBS-11 • Group 5: 50 μg of Ova and 100 ng of PBS-14 • Group 6: 50 μg of Ova and 100 ng of PBS-57 • Group 7: 50 μg of Ova and 100 ng of PBS-96 At 14 days post-injection, blood samples were collected and ELISAs for IgG1 and IgG2a were performed using mouse monoclonal antibodies specific for OVA isotype IgG1 or IgG2a. The results are shown as the titer of the antibody in peripheral blood in ng/ml. The results for IgG1 are depicted in FIG. 11 and those for IgG2a are depicted in FIG. 12.

[2] = system: CD8+ T cells responsive to OVA; experiment: SIINFEKL pentamer assay of OVA-specific CD8+ T cells (FACS); type: in vivo, mouse; conditions: IM, days 0 and 14, blood day 21
Method: To verify the results obtained using the in vivo cytotoxicity assay described in the Examples above, similar experiments were performed and CD8+ T cell activation was determined by measuring the percentage of OVA-specific CD8+ T cells using a pentamer assay. Briefly, mice were injected intramuscularly with the indicated amounts of OVA and test adjuvant compound at either 1 μg or 100 ng per mouse, respectively on day 0 as follows:
Experiment A: • Group 1: 100 μl of PBS; • Group 2: 50 μg of Ova into 100 μl PBS; • Group 3: 50 μg of Ova with 1 μg αGalCer; • Group 4: 50 μg of Ova with 1 μg PBS-11 • Group 5: 50 μg of Ova with 1 μg PBS-14 • Group 6: 50 μg of Ova with 1 μg PBS-57 • Group 7: 50 μg of Ova with 1 μg PBS-96
Experiment B: • Group 1: 100 μl of PBS; • Group 2: 50 μg of Ova into 100 μl PBS; • Group 3: 50 μg of Ova with 100 ng αGalCer; • Group 4: 50 μg of Ova with 100 ng PBS-11 • Group 5: 50 μg of Ova with 100 ng PBS-14 • Group 6: 50 μg of Ova with 100 ng PBS-57 • Group 7: 50 μg of Ova with 100 ng PBS-96 A second injection was administered to the mice on day 14 and blood was collected from the mice on day 21. The lymphocytes were collected and analyzed by FACS analysis using H-2 K^b SIINFEKL pentamer and CD8 antibody to detect CD8+ T cells responsive to OVA.

IFNγ = experiment: in vivo IFNγ release in sera by ELISA 24 hours after inoculation; design: species or system C57BL/6 mice; conditions: Quantikine kit, FIG. 4
Method: To test the ability of the adjuvant test compounds to stimulate in vivo cytokine release, C57BL/6 mice were administered the compounds at different concentrations intravenously and the production of IFNγ in sera was measured 24 hours later by ELISA. Groups of 3 mice were inoculated intravenously (tail vein) on day 0 as follows: • Group 1: 100 μl of PBS alone • Group 2: 1 μg of αGalCer in 100 μl of PBS • Group 3: 100 ng of αGalCer in 100 μl of PBS • Group 4: 1 ng of αGalCer in 100 μl of PBS • Group 5: 0.1 ng of αGalCer in 100 μl of PBS • Group 6: 100 ng of αGalCer and 100 μg of Ova in 100 μl of PBS • Group 7: 1 μg of PBS-57 in 100 μl of PBS • Group 8: 100 ng of PBS-57 in 100 μl of PBS • Group 9: 1 ng of PBS-57 in 100 μl of PBS • Group 10: 0.1 ng of PBS-57 in 100 μl of PBS • Group 11: 100 ng of PBS-57 and 400 μg of Ova into 100 μl of PBS • Group 12: 1 μg of PBS-14 in 100 μl of PBS • Group 13: 100 ng of PBS-14 in 100 μl of PBS • Group 14: 1 ng of PBS-14 in 100 μl of PBS • Group 15: 0.1 ng of PBS-14 in 100 μl of PBS • Group 16: 100 ng of PBS-14 and 400 μg of Ova in 100 μl of PBS • Group 17: 1 μg of PBS-96 in 100 μl of PBS • Group 18: 100 ng of PBS-96 in 100 μl of PBS • Group 19: 1 ng of PBS-96 in 100 μl of PBS • Group 20: 0.1 ng of PBS-96 in 100 μl of PBS • Group 21: 100 ng of PBS-96 and 400 μg of Ova in 100 μl of PBS. 24 hours after inoculation, blood samples were collected from the mice and IFNγ levels were detected by ELISA kit. Two ELISA kits were used, Quantikine mouse IFNγ (RD systems) was used to test all samples and ELISA mIFNγ (Diaclone) was used to test group 1, 2, 3, 6, 7, 8, 11, 12, 13, 16, 17, 18 and 21. All sera were diluted before use in ELISA as follows:
Results are expressed as IFNγ concentration (pg/ml) in sera and take into account the dilution factor. FIG. 4 depicts results using the Quantikine mouse IFNγ kit by RD systems. FIG. 4A depicts results of IFNγ levels for mice immunized with PBS-57, FIG. 4B depicts results of IFNγ levels for mice immunized with PBS-14, FIG. 4C depicts results of IFNγ levels for mice immunized with PBS-96 and FIG. 4D depicts results of IFNγ levels for mice immunized with αGalCer. At 0.1 ng, all adjuvant candidates induce cytokine release, but mice immunized with αGalCer produced three- or four-fold less IFNγ than mice immunized with PBS-57, PBS-14 or PBS-96 (1540.57±397.53 pg/ml, 4398.05±880.86 pg/ml, 6669.31±1231.82 pg/ml, 5823.33±720.69 pg/ml respectively).
Another set of mice were used to compare the ability of adjuvant compounds to stimulate in vivo cytokine release by the method described above. Five groups of C57BL/6 mice were administered 100 ng of PBS-57, PBS-14, PBS-96, or PBS-11 in 100 μl PBS or 100 μl PBS alone intravenously. The production of IFNγ in sera was measured 24 hours later by ELISA. FIG. 5 depicts results for mice immunized with 100 ng of PBS-11, PBS-96, PBS-14 and PBS-57.

OVA-specific IgG1 = OVA-specific IgG1 ELISA after intramuscular immunization; type: in vivo, mouse; conditions: FIG. 11; IM, 50 μg OVA with 100 ng adjuvant, 14 days post-injection
Method: as §1

For `CCCCCCCCCCCCCCCCCCCCCCCC(=O)N[C@@H](CO[C@H]1O[C@H](CNC(C)=O)[C@H](O)[C@H](O)[C@H]1O)[C@H](O)[C@H](O)CCCCCCCCCCCCCC` [PBS-96], the “specific lysis of Ova-specific target cells in blood” value ([1]; Example 1, FIG. 1, IV, 1 μg adjuvant with 50 μg Ova, day 11) was “resulted in cytotoxic lysis of Ova-specific target cells”, the “average Ova-specific cytotoxic response” value ([1]; Example 2, FIG. 2, IV, 400 μg Ova with or without 1 μg adjuvant, day 11 blood) was 89.2±10.3% and the “average OVA-specific cytotoxic response” value ([1]; Example 2, FIG. 3, IM, 400 μg Ova with or without 1 μg adjuvant, day 11 blood) was 50.29±42.6%. The “average Ova-specific cell lysis” value ([1]; Example 4, FIG. 6, IV, 400 μg Ova with or without 1 μg adjuvant (PBS-57 new formulation), day 11 blood) was 89.2±10.3%, the “enhancement of the CD8+ T cell response (specific lysis) at low doses” value ([1]; Example 5 Experiments A and B, FIGS. 7 and 8, 50 μg OVA with 100 ng or 10 ng adjuvant intramuscularly) was “unexpectedly better than other adjuvants” and the “OVA specific IgG2a titer in peripheral blood” value (OVA specific IgG2a) was “about as well as Freund's adjuvant”. The “percentage of OVA specific CD8+ T cells” value ([2]; Example 6 Experiment A, FIG. 9, 50 μg Ova with 1 μg adjuvant) was “enhanced the percentage of OVA specific CD8+ T cells”, the “percentage of OVA specific CD8+ T cells” value ([2]; Example 6 Experiment B, FIG. 10, 50 μg Ova with 100 ng adjuvant) was “surprisingly much better at enhancing the CD8+ T cell response” and the “IFNγ concentration in sera” value (IFNγ; 0.1 ng IV) was 5823.33 ± 720.69 pg/mL. For the same compound, the “IFNγ concentration in sera” value (IFNγ; 1 ng IV) was 6271.95 ± 3737.53 pg/mL, the “IFNγ concentration in sera” value (IFNγ; 100 ng IV) was 19679.89 ± 1443.48 pg/mL and the “IFNγ concentration in sera” value (IFNγ; 1 μg IV) was 17720.11 ± 2869.97 pg/mL. The “OVA-specific IgG1 titer in peripheral blood” value (OVA-specific IgG1) was “able to elicit a robust IgG1 titer”.
